Results reported in patent US10130598B2, “Methods and compositions for administration of 3-halopyruvate and related compounds for the treatment of cancer” (The Johns Hopkins University, priority 2008, dated 2018).
pIC50: −log10 of the molar value. Like-named read-outs stand apart in the source and are kept apart here.

Key:
Assay type in all cases: cell-based
[1] = test system: Hep3B, HepG2, SK-Hep1 and VX2 cells; experiment: Active caspase-3 western blot; conditions: all four cell lines; 100, 150, 200 μM
Method: The apoptosis of 3-BrPA treated cells was evaluated using Annexin V staining and the formation of active caspase-3. Cells treated with 3-BrPA were stained with anti-Annexin V and analyzed by flow cytometry as well as fluorescent microscopy. Flow cytometry was performed using a Becton-Dickinson FACSCalibur. The gating was done based on unstained control cells, Annexin V—PE stained and 7-AAD stained control cells. For fluorescent microscopy, Annexin V staining was performed using Annexin V staining Microscopy kit (BD Biosciences, USA) according to the protocol recommended by the manufacturer. In brief, cells grown in chambered slides were treated with either 3BrPA or the vehicle, washed once with ice-cold PBS followed by two washes with binding buffer, at the end of the treatment period. Cells were then incubated with the FITC-conjugated Annexin V fluorescent antibody for 15 min followed by a gentle wash. The cells were kept in binding buffer and images were observed captured using a Zeiss Axiovert 200 Microscope (Carl Zeiss Microimaging Inc., USA). Active caspase-3, an apoptotic marker, was identified by western blot analysis. Lysates prepared from equal numbers of cells treated with different concentrations of 3BrPA were subjected to SDS-PAGE electrophoresis and immunoblotting against active (cleaved) caspase-3. […]

H1299 cells = experiment: Trypan blue viability assay, H1299
Text: (§1) The non-small cell lung cancer (NSCLC) cell line NCI-H1299, the breast cancer cell lines MCF7 and MDA MB 231 and the Hep3B, Hep2G and SK-Hep1 cells were obtained from the American Type Culture Collection (ATCC) (Manassas, Va., USA) and maintained as a monolayer culture in Eagle's minimum essential medium (MEM, Invitrogen, Gaithersburg, Md., USA) supplemented with 10% fetal bovine serum at 37 C and 5% CO2. All treatments were done in triplicate samples on 96-well plates. VX2 cells were maintained as described in Geschwind et al., Cancer Res., 62:3909-3913 (2002).
The efficacy of 3-BrPA in the treatment of lung cancer cells was tested using the non-small cell lung cancer (NSCLC) cell line NCI-H1299. As described above, the cell line was grown as a monolayer in MEM (Invitrogen) supplemented with 10% fetal bovine serum (HyClone) at 37 C.° and 5% CO2, and all treatments were done in triplicate samples on 96-well plates.
The EC50 of 3-BrPA for H1299 cells lies between 0.08 and 0.09 mM. […] Therefore, considering that oral administration of 3-BrPA buffered in NaHCO3 is effective in prolonging survival in liver cancer models (Example 2), it is probable that oral administration of 3-BrPA buffered in NaHCO3 would also be effective in the treatment of lung cancer.

Vx-2 cell line = experiment: ATP dependent luminescence cell viability assay, VX2; conditions: for pIC50: Vx-2, read-out: IC50 (ATP depletion)
Text: as §1
Cytotoxicity of 3-BrPA was evaluated by the IC50 values, representing the drug concentration which depletes ATP by 50% compared to non-treated control. On day 1, cells were seeded into 96-well plates in a volume of 100 μl per well. On day 2, the medium of all wells was removed and an aliquot of 100 μl of media having serial dilutions of 3-BrPA in PBS, NaHCO3, NaOH, KOH and KHCO3 was added to the appropriate well. […] Briefly, 100 μl assay reagent was added to each well and mixed at room temperature for 2 min to develop luminescent signal. The luminescence intensity (cps) from each sample was determined with a spectrometer (Model Victor III, Perkin Elmer, Mass.). Relative luminescence was calculated in proportion to the numbers of living cells per sample well. The results are expressed as the mean of three independent experiments. The intracellular ATP contents were calculated and normalized by equal cell number and expressed as the percentage of the control cells. The IC50 values were estimated graphically from dose-response plots.
The efficacy of 3-BrPA in the treatment of liver cancer cells was further tested using the cancer cell lines Hep3B, HepG2, SK-Hep1 and VX2. […]
(§2) The effects on cell viability and cellular metabolism of 3-BrPA on Hep3B and VX2 cells were examined using luminescence ATP assays, as described above. […]

SK-Hep 1 cells = experiment: ATP dependent luminescence cell viability assay, SK-Hep1
Text: as §1
Cytotoxicity of 3-BrPA was evaluated by the IC50 values, representing the drug concentration which depletes ATP by 50% compared to non-treated control. On day 1, cells were seeded into 96-well plates in a volume of 100 μl per well. On day 2, the medium of all wells was removed and an aliquot of 100 μl of media having serial dilutions of 3-BrPA in PBS, NaHCO3, NaOH, KOH and KHCO3 was added to the appropriate well. […] Briefly, 100 μl assay reagent was added to each well and mixed at room temperature for 2 min to develop luminescent signal. The luminescence intensity (cps) from each sample was determined with a spectrometer (Model Victor III, Perkin Elmer, Mass.). […]
as §2

MDA MB 231 cells = experiment: Luminescence ATP assay, MDA MB 231
Method: Cytotoxicity of 3-BrPA was evaluated by the IC50 values, representing the drug concentration which depletes ATP by 50% compared to non-treated control. On day 1, cells were seeded into 96-well plates in a volume of 100 μl per well. On day 2, the medium of all wells was removed and an aliquot of 100 μl of media having serial dilutions of 3-BrPA in PBS, NaHCO3, NaOH, KOH and KHCO3 was added to the appropriate well. After 24 h of drug exposure cytotoxic effects of 3-BrPA were monitored by cellular ATP level using CellTiter-Glo™ assay reagents from Promega Corp (Madison, Wis.). Briefly, 100 μl assay reagent was added to each well and mixed at room temperature for 2 min to develop luminescent signal. The luminescence intensity (cps) from each sample was determined with a spectrometer (Model Victor III, Perkin Elmer, Mass.). Relative luminescence was calculated in proportion to the numbers of living cells per sample well. The results are expressed as the mean of three independent experiments. The intracellular ATP contents were calculated and normalized by equal cell number and expressed as the percentage of the control cells. The IC50 values were estimated graphically from dose-response plots.
The anti-metabolic effect of 3-BrPA on MCF7 and MDA MB231 cells was examined using luminescence ATP assays, as described above. […]

In the case of `O=C(O)C(=O)CBr` [3-BrPA, 3-bromopyruvate], the “Caspase-3 activation (immunoblot)” value [1] was “dose dependent increase”, the Cells died (H1299 cells; 0.1 mM, within 3 hours) was “more than 80%” and the Cell death (H1299 cells; 0.2 mM) was 100%. For the same molecule, the “EC50 compared with EC50 of 3-BrPA for VX2 liver cancer cells” value (H1299 cells; H1299) was “lower”, the “Viability (trypan blue)” value (H1299 cells; H1299) was “dose and time dependent decrease in viability” and the “Level of ATP” value (Vx-2 cell line; VX2, 3, 24, 48 hours) was “dose and time dependent decrease”. The pIC50 (Vx-2 cell line; at 48 hours) was 4.30, the pIC50 (Vx-2 cell line; treatment time not given) was 4.22 and the “Level of ATP” value (SK-Hep 1 cells; SK-Hep1, 3, 24, 48 hours) was “dose and time dependent decrease”. For the same molecule, the pIC50 (SK-Hep 1 cells; SK-Hep 1, at 48 hours, read-out: IC50 (ATP depletion)) was 3.90 and the “ATP level (bioluminescent quantification)” value (MDA MB 231 cells) was “dose and time dependent energy (ATP) depletion”.
